Common to all, as to type: functional
The test system of assay [1] is Rattus norvegicus. Description: Antistress activity in Rattus norvegicus Sprague-Dawley (rat) assessed as inhibition of acute stress-induced increase in corticosterone level at 40 mg/kg, po (reference value: 465.7 +/- 15.77 ng/ml).
In assay [2] the test system is Rattus norvegicus. Kind of assay: Antistress activity in Rattus norvegicus Sprague-Dawley (rat) assessed as inhibition of acute stress-induced plasma creatinine kinase activity at 40 mg/kg, po (reference value: 1115 +/- 29.43 IU/dl).
The subject of assay [3] is Rattus norvegicus. Kind of assay: Antistress activity in Rattus norvegicus Sprague-Dawley (rat) assessed as inhibition of acute stress-induced hyperglycemia measured as glucose level at 40 mg/kg, po (reference value: 134.7 +/- 4.68 mg/dl).
Assay [4] concerns Rattus norvegicus. Kind of assay: Antistress activity in Rattus norvegicus Sprague-Dawley (rat) assessed as inhibition of acute stress-induced adrenal hypertrophy measured as adrenal gland weight per 100 g of body weight at 40 mg/kg, po (reference value: 10.20 +/- 0.69 mg).

`COc1cc(CC2CC(c3cccc4ccccc34)=NO2)ccc1OCc1ccccc1` (stereo unspecified): the Activity was 444.7 ng/mL in assay [1], 994.5 IU/dl in assay [2], 116.3 mg/dL in assay [3] and 9.6 mg in assay [4].
Take `COc1cc(CC2CC(c3cccc4ccccc34)=NO2)ccc1OCCN1CCCC1` (stereo unspecified): the Activity in assay [1] worked out at 421 ng/mL; in assay [2], 1074 IU/dl; in assay [3], 125 mg/dL; in assay [4], 10.58 mg.
The matching figures for `COc1cc(CC2CC(c3cccc4ccccc34)=NO2)ccc1OCCN1CCCCC1` (stereo unspecified): 282.5 ng/mL, 603.7 IU/dl, 78.17 mg/dL and 7.23 mg.
In the same order, the values of `COc1ccc(C2=NOC(Cc3ccc(O)c(OC)c3)C2)c(OC)c1` (stereo unspecified) are 432.2 ng/mL, 1004 IU/dl, 112 mg/dL and 9.31 mg.
The matching figures for `COc1ccc(C2=NOC(Cc3ccc(OC(C)=O)c(OC)c3)C2)c(OC)c1` (stereo unspecified): 364.2 ng/mL, 766.71 IU/dl, 107.2 mg/dL and 7.01 mg.
For `COc1ccc(C2=NOC(Cc3ccc(OC)c(OC)c3)C2)c(OC)c1` (stereo unspecified), the Activity in assay [1] turned out to be 446 ng/mL; in assay [2] it was 1092 IU/dl; in assay [3] it was 122 mg/dL; in assay [4], 9.63 mg.
In the same order, the values of `CCOc1ccc(CC2CC(c3ccc(OC)cc3OC)=NO2)cc1OC` (stereo unspecified) are 275.5 ng/mL, 729.7 IU/dl, 93 mg/dL and 7.82 mg.
The matching figures for `COc1ccc(C2=NOC(Cc3ccc(OCc4ccccc4)c(OC)c3)C2)c(OC)c1` (stereo unspecified): 354.8 ng/mL, 664.3 IU/dl, 80.5 mg/dL and 8.01 mg.
In the same order, the values of `COc1ccc(C2=NOC(Cc3ccc(OCCN4CCCC4)c(OC)c3)C2)c(OC)c1` (stereo unspecified) are 429.8 ng/mL, 934.7 IU/dl, 127 mg/dL and 9.82 mg.
In the case of `COc1ccc(C2=NOC(Cc3ccc(OCCN4CCCCC4)c(OC)c3)C2)c(OC)c1` (stereo unspecified), the Activity in assay [1] was 320 ng/mL; in assay [2], 733.8 IU/dl; in assay [3] it was 101.7 mg/dL; in assay [4], 7.6 mg.
In the same order, the values of `COc1cc(CC2CC(c3cccc4ccccc34)=NO2)ccc1O` (stereo unspecified) are 417.2 ng/mL, 998.5 IU/dl, 86.24 mg/dL and 9.86 mg.
In the same order, the values of `COc1cc(CC2CC(c3cccc4ccccc34)=NO2)ccc1OC(C)=O` (stereo unspecified) are 311.8 ng/mL, 673 IU/dl, 74.67 mg/dL and 7.77 mg.
In the same order, the values of `COc1ccc(CC2CC(c3cccc4ccccc34)=NO2)cc1OC` (stereo unspecified) are 293.5 ng/mL, 590 IU/dl, 109.51 mg/dL and 7.54 mg.
Take `CCOc1ccc(CC2CC(c3cccc4ccccc34)=NO2)cc1OC` (stereo unspecified): the Activity in assay [1] is 292.3 ng/mL; in assay [2] it was 625.7 IU/dl; in assay [3], 72.83 mg/dL; in assay [4], 7.89 mg.

The values are drawn from ChEMBL document CHEMBL3046941, “Synthesis of novel isoxazolines via 1,3-dipolar cycloaddition and evaluation of anti-stress activity” (2011).
